Measured values published in DBAASP.
In brackets after ≈: the same amount, converted by molar mass. Values belong to the compound of their own block, whether it stands above or below them.

What was measured:
Assay in all cases: ≥ marks a high value that may be exact or a test limit, other limits are often not marked, values filed in µg/mL are converted to µM
Escherichia coli BL21 = tested on: Escherichia coli BL21
[1] = tested on: Bacillus subtilis ISW 1214
[2] = tested on: Micrococcus luteus ATCC 49732
[3] = tested on: Proteus vulgaris ATCC 49132
[4] = tested on: Staphylococcus aureus ATCC 25923
[5] = tested on: Staphylococcus epidermidis ATCC 12228
[6] = tested on: Enterococcus faecalis ATCC 29212
[7] = tested on: Escherichia coli ATCC 25922
[8] = tested on: Salmonella enterica subsp. enterica serovar Typhimurium ATCC 14028
Serratia sp. ATCC 39006 = tested on: Serratia sp. ATCC 39006
[9] = tested on: Staphylococcus saprophyticus ATCC 15305
[10] = tested on: Staphylococcus aureus ATCC 43330
[11] = tested on: Klebsiella pneumoniae ATCC 700603
[12] = tested on: Shigella sonnei ATCC 25931
[13] = tested on: Streptococcus agalactiae ATCC 12386
[14] = tested on: Neisseria gonorrhoeae ATCC 49226
[15] = tested on: Staphylococcus epidermidis CICC 23664
[16] = tested on: Pseudomonas aeruginosa CGMCC 1.860
[17] = tested on: Enterococcus faecalis CGMCC 1.595
[18] = tested on: Proteus mirabilis CICC 22931
[19] = tested on: Staphylococcus aureus AS1.72
Escherichia coli AS1.349 = tested on: Escherichia coli AS1.349
[20] = tested on: Enterobacter cloacae CGMCC 1.58
Bacillus cereus AS1.126 = tested on: Bacillus cereus AS1.126
[21] = tested on: Staphylococcus epidermidis
[22] = tested on: Pseudomonas aeruginosa 0108
[23] = tested on: Klebsiella pneumoniae subsp. pneumoniae CGMCC 1.176
[24] = tested on: Enterococcus faecium CGMCC 1.2334

MIC (Escherichia coli BL21): ≥ 160 µM
MIC [1]: ≥ 160 µM
Structure (SMILES): CC(=O)NCC(=O)N[C@@H](Cc1c[nH]c2ccccc12)C(=O)N[C@@H](CCC(N)=O)C(=O)N[C@@H](CC(C)C)C(=O)N[C@@H](CC(C)C)C(=O)N[C@@H](C)C(=O)N[C@@H](CC(C)C)C(=O)N[C@@H](Cc1cnc[nH]1)C(=O)N[C@@H](CC(C)C)C(=O)N[C@@H](CCC(N)=O)C(=O)N[C@@H](CC(C)C)C(=O)N[C@@H](CC(C)C)C(=O)NCC(=O)N[C@@H](CC(C)C)C(=O)N[C@@H](Cc1cnc[nH]1)C(=O)N[C@@H](CC(C)C)C(=O)N[C@@H](CC(C)C)C(=O)N[C@@H](CCC(N)=O)C(=O)N[C@@H](CC(C)C)C(=O)N[C@@H](C)C(=O)N[C@@H](CC(C)C)C(=O)N[C@@H](CC(C)C)C(=O)N[C@@H](CCC(N)=O)C(=O)N[C@@H](CCCN=C(N)N)C(=O)N[C@@H](CCCN=C(N)N)C(=O)N[C@@H](CCCN=C(N)N)C(N)=O [GWQLLALHLQLLGLHLLQLALLQRRR]

MIC [2]: 0.63 µM (≈ 2.11 µg/mL)
MIC [3]: 2.49 µM (≈ 8.33 µg/mL)
MIC [4]: 1.22 µM (≈ 4.1 µg/mL)
MIC [5]: 2.49 µM (≈ 8.33 µg/mL)
MIC [6]: 0.934 µM (≈ 3.13 µg/mL)
MIC [7]: 0.934 µM (≈ 3.13 µg/mL)
MIC [8]: 2.15 µM (≈ 7.21 µg/mL)
MIC (Serratia sp. ATCC 39006): 0.63 µM (≈ 2.11 µg/mL)
MIC [9]: 1.22 µM (≈ 4.1 µg/mL)
MIC [10]: 3.73 µM (≈ 12.5 µg/mL)
MIC [11]: 2.15 µM (≈ 7.21 µg/mL)
MIC [12]: 0.537 µM (≈ 1.8 µg/mL)
MIC [13]: 1.4 µM (≈ 4.7 µg/mL)
MIC [14]: 2.49 µM (≈ 8.33 µg/mL)
Structure (SMILES): CC[C@H](C)[C@H](NC(=O)CNC(=O)[C@H](C)NC(=O)[C@H](C)NC(=O)[C@@H](NC(=O)[C@@H](NC(=O)[C@H](CC(N)=O)NC(=O)[C@@H](NC(=O)[C@H](C)NC(=O)[C@@H](NC(=O)[C@@H]1CCCN1C(=O)[C@@H](NC(=O)[C@H](CC(C)C)NC(=O)[C@@H]1CCCN1C(=O)[C@H](Cc1c[nH]c2ccccc12)NC(=O)[C@H](Cc1ccccc1)NC(=O)[C@H](CCCN=C(N)N)NC(=O)[C@H](CCCCN)NC(=O)[C@@H](NC(=O)[C@@H](N)CCCN=C(N)N)C(C)C)C(C)C)C(C)C)[C@@H](C)CC)[C@@H](C)O)C(C)C)C(=O)N[C@@H](CC(N)=O)C(=O)N[C@@H](CC(C)C)C(=O)N[C@@H](Cc1ccc(O)cc1)C(=O)N[C@@H](CCCCN)C(=O)N[C@@H](C)C(=O)N[C@H](C(=O)N[C@@H](CCCN=C(N)N)C(=O)N[C@@H](CCCN=C(N)N)C(=O)N[C@@H](CCCCN)C(N)=O)[C@@H](C)CC [RVKRFWPLVPVAINTVAAGINLYKAIRRK]

MIC [15]: 1.56 µM (≈ 2.65 µg/mL)
MIC [16]: 6.25 µM (≈ 10.6 µg/mL)
MIC [17]: 1.56 µM (≈ 2.65 µg/mL)
MIC [18]: 6.25 µM (≈ 10.6 µg/mL)
MIC [19]: 3.13 µM (≈ 5.32 µg/mL)
MIC (Escherichia coli AS1.349): 6.25 µM (≈ 10.6 µg/mL)
MIC [20]: 3.13 µM (≈ 5.32 µg/mL)
MIC (Bacillus cereus AS1.126): 3.13 µM (≈ 5.32 µg/mL)
MIC [21]: 3.12 µM (≈ 5.3 µg/mL)
MIC [22]: 12.5 µM (≈ 21.2 µg/mL)
MIC [23]: 25 µM (≈ 42.5 µg/mL)
MIC [24]: 3.13 µM (≈ 5.32 µg/mL)
Structure (SMILES): CC[C@H](C)[C@H](NC(=O)[C@H](CCCCN)NC(=O)[C@H](CO)NC(=O)[C@H](Cc1c[nH]c2ccccc12)NC(=O)[C@@H](NC(=O)[C@H](CCCCN)NC(=O)[C@H](CCCCN)NC(=O)[C@@H](N)Cc1c[nH]c2ccccc12)[C@@H](C)CC)C(=O)N[C@@H](CCCCN)C(=O)N[C@@H](CCCCN)C(=O)N[C@@H](CC(C)C)C(=O)N[C@@H](CC(C)C)C(=O)N[C@@H](CCCCN)C(N)=O [WKKIWSKIKKLLK]
